For 19 molecules, Dmax and DC50 results are on record in patent US12257247B2 (Monte Rosa Therapeutics AG, priority 2023, dated 2025).

Each structure is given as a SMILES string. Where two headings read alike, the source gives them in different places. A value given as a limit tells only on which side of the number the result lay.

The target in this assay is T1, VAV1 (Homo sapiens, UniProt P15498+Q96SW2).
T1 construct: A heterozygous VAV1 C-terminal HiBiT knock-in pool was generated at Monte Rosa Therapeutics from a clonal Jurkat cell; endogenous in cells; host or cells: Jurkat clone stably expressing LgBiT, homozygous GSPT1-G575N; heterozygous VAV1-HiBiT knock-in pool
Nature of the assay: VAV1 degradation activity, VAV1-HiBiT knock-in Jurkat luminescence assay (Example A, Table 1). The assay is classed as cell-based. The settings on record: VAV1-HiBiT knock-in Jurkat cells, luminescence read at 6 and 24 hours; for Dmax: Jurkat. In outline:
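Jurkat cells carrying VAV1-HiBiT knock-in, plated in RPMI/10% FBS with Endurazine live-cell substrate and pre-incubated ~16 h at 37° C. Compound dosed from 10 μM stock; luminescence read 6 and 24 h later. Response normalised to plate negative/positive controls, EC50 from 3-parameter logistic fit (hillslope 1).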

Setting [1] is: read-out: VAV1 DC50 (nM), class.

Usually Dmax stands for the largest share of the target that was removed. The term DC50 denotes the concentration at which degradation of the target reaches its halfway point. Consider `Cn1ccc(CNc2ccc(-c3cccc(C4CCC(=O)NC4=O)c3Cl)cc2)n1` (stereo not shown) [Compound 180, 3-(2-chloro-4′-(((1-methyl-1H-pyrazol-3-yl)methyl)amino)-[1,1′-biphenyl]-3-yl)piperidine-2,6-dione], for which the Dmax was 88.8% (read-out: VAV1 Dmax %) and 60 to 90% (read-out: VAV1 Dmax %, class). Besides, the DC50 is, setting by setting: (read-out: VAV1 DC50) 11.5 nM; under setting [1], at most 100 nM.

Regarding `O=C1CCC(c2cccc(-c3ccc(C(=O)N4CCCC4)cc3)c2Cl)C(=O)N1` (stereo not shown) [Compound 181, 3-(2-chloro-4′-(pyrrolidine-1-carbonyl)-[1,1′-biphenyl]-3-yl)piperidine-2,6-dione], the Dmax is, setting by setting: (read-out: VAV1 Dmax %) 85.9%; (read-out: VAV1 Dmax %, class) 60 to 90%. For the same molecule, the DC50 runs as follows: (read-out: VAV1 DC50) 33.9 nM; under setting [1], at most 100 nM.

With `O=C1CCC(c2cccc(-c3ccc(CCn4ccccc4=O)cc3)c2Cl)C(=O)N1` (stereo not shown) [Compound 182, 3-(2-chloro-4′-(2-(2-oxopyridin-1(2H)-yl)ethyl)-[1,1′-biphenyl]-3-yl)piperidine-2,6-dione], the greatest degradation seen (Dmax) was 89.3% (read-out: VAV1 Dmax %) and 60 to 90% (read-out: VAV1 Dmax %, class). Moreover, the 50% degradation concentration (DC50) by setting is: (read-out: VAV1 DC50) 11.7 nM; under setting [1], at most 100 nM.

`Cn1cnc(COc2ccc(-c3cccc(C4CCC(=O)NC4=O)c3Cl)cc2)c1` (stereo not shown) [Compound 183, 3-(2-chloro-4′-((1-methyl-1H-imidazol-4-yl)methoxy)-[1,1′-biphenyl]-3-yl)piperidine-2,6-dione]: the maximal degradation (Dmax) is, setting by setting: (read-out: VAV1 Dmax %) 95.7%; (read-out: VAV1 Dmax %, class) above 90%. Further, the 50% degradation concentration (DC50) was 5.55 nM (read-out: VAV1 DC50) and at most 100 nM under setting [1].

Take `Cc1cccc(=O)n1Cc1ccc(-c2cccc(C3CCC(=O)NC3=O)c2Cl)cc1` (stereo not shown) [Compound 184, 3-(2-chloro-4′-((6-methyl-2-oxopyridin-1(2H)-yl)methyl)-[1,1′-biphenyl]-3-yl)piperidine-2,6-dione]: the Dmax (read-out: VAV1 Dmax %) was found to be 92.1% and the Dmax (read-out: VAV1 Dmax %, class) is above 90%. For the same molecule, the DC50 is 11.6 nM (read-out: VAV1 DC50) and at most 100 nM under setting [1].

Consider `O=C1CCC(c2cccc(-c3ccc(-n4ccccc4=O)cc3)c2Cl)C(=O)N1` (stereo not shown) [Compound 185, 3-(2-chloro-4′-(2-oxopyridin-1(2H)-yl)-[1,1′-biphenyl]-3-yl)piperidine-2,6-dione], for which the greatest degradation seen (Dmax) reads like this: (read-out: VAV1 Dmax %) 97%; (read-out: VAV1 Dmax %, class) above 90%. Moreover, the DC50 by setting is: (read-out: VAV1 DC50) 7 nM; under setting [1], at most 100 nM.

Turning to `Cn1cncc1COc1ccc(-c2cccc(C3CCC(=O)NC3=O)c2Cl)cc1` (stereo not shown) [Compound 186, 3-(2-chloro-4′-((1-methyl-1H-imidazol-5-yl)methoxy)-[1,1′-biphenyl]-3-yl)piperidine-2,6-dione], the maximal degradation (Dmax) was 95.3% (read-out: VAV1 Dmax %) and above 90% (read-out: VAV1 Dmax %, class). For the same molecule, the 50% degradation concentration (DC50) is 13.6 nM (read-out: VAV1 DC50) and at most 100 nM under setting [1].

Turning to `Cc1cccn(Cc2ccc(-c3cccc(C4CCC(=O)NC4=O)c3Cl)cc2)c1=O` (stereo not shown) [Compound 187, 3-(2-chloro-4′-((3-methyl-2-oxopyridin-1(2H)-yl)methyl)-[1,1′-biphenyl]-3-yl)piperidine-2,6-dione], the greatest degradation seen (Dmax) runs as follows: (read-out: VAV1 Dmax %) 94.2%; (read-out: VAV1 Dmax %, class) above 90%. Also, the half-maximal degradation concentration (DC50) is 9.75 nM (read-out: VAV1 DC50) and at most 100 nM under setting [1].

Consider `Cc1ccc(=O)n(Cc2ccc(-c3cccc(C4CCC(=O)NC4=O)c3Cl)cc2)c1` (stereo not shown) [Compound 188, 3-(2-chloro-4′-((5-methyl-2-oxopyridin-1(2H)-yl)methyl)-[1,1′-biphenyl]-3-yl)piperidine-2,6-dione], for which the greatest degradation seen (Dmax) (read-out: VAV1 Dmax %) was 95% and the greatest degradation seen (Dmax) (read-out: VAV1 Dmax %, class) was above 90%. Also, the half-maximal degradation concentration (DC50) reads like this: (read-out: VAV1 DC50) 7.16 nM; under setting [1], at most 100 nM.

On to `Cc1ccn(Cc2ccc(-c3cccc(C4CCC(=O)NC4=O)c3Cl)cc2)c(=O)c1` (stereo not shown) [Compound 189, 3-(2-chloro-4′-((4-methyl-2-oxopyridin-1(2H)-yl)methyl)-[1,1′-biphenyl]-3-yl)piperidine-2,6-dione], for which the Dmax is 91.4% (read-out: VAV1 Dmax %) and above 90% (read-out: VAV1 Dmax %, class). Further, the 50% degradation concentration (DC50) (read-out: VAV1 DC50) is 33.7 nM and the half-maximal degradation concentration (DC50) under setting [1] is at most 100 nM.

Consider `O=C1CCC(c2cccc(-c3cccc(COC4CCOC4)c3)c2Cl)C(=O)N1` (stereo not shown) [Compound 190, 3-(2-chloro-3′-(((tetrahydrofuran-3-yl)oxy)methyl)-[1,1′-biphenyl]-3-yl)piperidine-2,6-dione], for which the greatest degradation seen (Dmax) by setting is: (read-out: VAV1 Dmax %) 21.5%; (read-out: VAV1 Dmax %, class) below 60%. In addition, the DC50 is, setting by setting: (read-out: VAV1 DC50) 3330 nM; under setting [1], above 1000 nM.

On to `Cn1cc(CNc2ccc(-c3cccc(C4CCC(=O)NC4=O)c3Cl)cc2)cn1` (stereo not shown) [Compound 193, 3-(2-chloro-4′-(((1-methyl-1H-pyrazol-4-yl)methyl)amino)-[1,1′-biphenyl]-3-yl)piperidine-2,6-dione], for which the greatest degradation seen (Dmax) by setting is: (read-out: VAV1 Dmax %) 91.7%; (read-out: VAV1 Dmax %, class) above 90%. The 50% degradation concentration (DC50) by setting is: (read-out: VAV1 DC50) 13.3 nM; under setting [1], at most 100 nM.

Regarding `Cn1ccc(CCc2ccc(-c3cccc(C4CCC(=O)NC4=O)c3Cl)cc2)n1` (stereo not shown) [Compound 194, 3-(2-chloro-4′-(2-(1-methyl-1H-pyrazol-3-yl)ethyl)-[1,1′-biphenyl]-3-yl)piperidine-2,6-dione], the Dmax by setting is: (read-out: VAV1 Dmax %) 94.1%; (read-out: VAV1 Dmax %, class) above 90%. Also, the half-maximal degradation concentration (DC50) (read-out: VAV1 DC50) came to 18.4 nM and the DC50 under setting [1] was at most 100 nM.

As for `O=C1CCC(c2cccc(-c3ccc(N4CCC4)cc3)c2Cl)C(=O)N1` (stereo not shown) [Compound 195, 3-(4′-(azetidin-1-yl)-2-chloro-[1,1′-biphenyl]-3-yl)piperidine-2,6-dione], the greatest degradation seen (Dmax) by setting is: (read-out: VAV1 Dmax %) 79.4%; (read-out: VAV1 Dmax %, class) 60 to 90%. The 50% degradation concentration (DC50) is 552 nM (read-out: VAV1 DC50) and 100 to 1000 nM under setting [1].

Consider `Cn1ccc(NCc2ccc(-c3cccc(C4CCC(=O)NC4=O)c3Cl)cc2)n1` (stereo not shown) [Compound 196, 3-(2-chloro-4′-(((1-methyl-1H-pyrazol-3-yl)amino)methyl)-[1,1′-biphenyl]-3-yl)piperidine-2,6-dione], for which the greatest degradation seen (Dmax) is, setting by setting: (read-out: VAV1 Dmax %) 95.6%; (read-out: VAV1 Dmax %, class) above 90%. Moreover, the DC50 by setting is: (read-out: VAV1 DC50) 9.34 nM; under setting [1], at most 100 nM.

As for `CC(C)(c1ccc(-c2cccc(C3CCC(=O)NC3=O)c2Cl)cc1)N1CCCCC1=O` (stereo not shown) [Compound 197, 3-(2-chloro-4′-(2-(2-oxopiperidin-1-yl)propan-2-yl)-[1,1′-biphenyl]-3-yl)piperidine-2,6-dione], the maximal degradation (Dmax) is 88.8% (read-out: VAV1 Dmax %) and 60 to 90% (read-out: VAV1 Dmax %, class). The 50% degradation concentration (DC50) is 33 nM (read-out: VAV1 DC50) and at most 100 nM under setting [1].

For `O=C1CCC(c2cccc(-c3ccc(C4COC4)cc3)c2Cl)C(=O)N1` (stereo not shown) [Compound 198, 3-(2-chloro-4′-(oxetan-3-yl)-[1,1′-biphenyl]-3-yl)piperidine-2,6-dione], the Dmax was 54.6% (read-out: VAV1 Dmax %) and below 60% (read-out: VAV1 Dmax %, class). For the same molecule, the DC50 was 4840 nM (read-out: VAV1 DC50) and above 1000 nM under setting [1].

As for `Cc1cc(-c2cccc(C3CCC(=O)NC3=O)c2Cl)ccc1-n1ccccc1=O` (stereo not shown) [Compound 199, 3-(2-chloro-3′-methyl-4′-(2-oxopyridin-1(2H)-yl)-[1,1′-biphenyl]-3-yl)piperidine-2,6-dione], the Dmax was 66.8% (read-out: VAV1 Dmax %) and 60 to 90% (read-out: VAV1 Dmax %, class). For the same molecule, the DC50 runs as follows: (read-out: VAV1 DC50) 1280 nM; under setting [1], above 1000 nM.

Regarding `CC1CCCC(=O)N1c1ccc(-c2cccc(C3CCC(=O)NC3=O)c2Cl)cc1` (stereo not shown) [Compound 200, 3-(2-chloro-4′-(2-methyl-6-oxopiperidin-1-yl)-[1,1′-biphenyl]-3-yl)piperidine-2,6-dione], the Dmax was 97% (read-out: VAV1 Dmax %) and above 90% (read-out: VAV1 Dmax %, class). The half-maximal degradation concentration (DC50) is 5.14 nM (read-out: VAV1 DC50) and at most 100 nM under setting [1].
